Consider 23 compounds from ChEMBL document CHEMBL3351996, “Carbonic anhydrase inhibitory activity of sulfonamides and carboxylic acids incorporating cyclic imide scaffolds” (Bioorg Med Chem Lett, 2014).

In test [1] the target is Carbonic anhydrase 12 (Homo sapiens, UniProt O43570).
Description: Inhibition of human carbonic anhydrase 12 by stopped-flow CO2 hydrase assay
Test [2] addresses Carbonic anhydrase 9 (Homo sapiens, UniProt Q16790).
Description: Inhibition of human carbonic anhydrase 9 by stopped-flow CO2 hydrase assay
Test [3] deals with Carbonic anhydrase 2 (Homo sapiens, UniProt P00918). Kind of test: Inhibition of human carbonic anhydrase 2 by stopped-flow CO2 hydrase assay.
Test [4] concerns the target Carbonic anhydrase 1 (Homo sapiens, UniProt P00915). The test is described as follows: Inhibition of human carbonic anhydrase 1 by stopped-flow CO2 hydrase assay.

Structures are written as SMILES.

Sequence of Carbonic anhydrase 12 (O43570 whole entry): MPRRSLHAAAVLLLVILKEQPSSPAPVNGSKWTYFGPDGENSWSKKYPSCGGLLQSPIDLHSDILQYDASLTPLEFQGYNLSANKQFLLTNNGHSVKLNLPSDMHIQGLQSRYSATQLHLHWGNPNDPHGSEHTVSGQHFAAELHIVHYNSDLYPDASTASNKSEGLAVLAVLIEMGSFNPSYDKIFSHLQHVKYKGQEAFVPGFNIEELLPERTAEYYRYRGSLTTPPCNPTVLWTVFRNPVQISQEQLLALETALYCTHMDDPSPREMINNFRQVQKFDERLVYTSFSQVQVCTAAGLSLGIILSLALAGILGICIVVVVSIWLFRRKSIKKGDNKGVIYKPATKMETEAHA
Sequence of Carbonic anhydrase 1 (P00915 whole entry): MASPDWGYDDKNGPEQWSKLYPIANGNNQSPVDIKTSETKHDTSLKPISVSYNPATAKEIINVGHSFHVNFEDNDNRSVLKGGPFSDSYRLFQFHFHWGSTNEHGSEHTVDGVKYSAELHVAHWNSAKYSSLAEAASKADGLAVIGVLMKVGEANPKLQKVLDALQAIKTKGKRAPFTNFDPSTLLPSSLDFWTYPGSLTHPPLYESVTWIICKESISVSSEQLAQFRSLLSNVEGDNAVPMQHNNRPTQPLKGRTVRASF

What is called Ki is the equilibrium dissociation constant of an inhibitor or competing ligand from its target. With `O=C(O)c1ccc(N2C(=O)c3cccc4cccc(c34)C2=O)cc1`, the inhibitory constant (Ki) in test [1] is 1.2 nM; in test [2], 5.9 nM; in test [3], > 1000 nM; in test [4], > 1000 nM.
As to `O=C(O)c1ccc(N2C(=O)c3c(Cl)c(Cl)c(Cl)c(Cl)c3C2=O)cc1`, the Ki is 4.4 nM in test [2] and > 1000 nM in test [3].
`O=C(O)c1ccc(N2C(=O)c3ccc([N+](=O)[O-])cc3C2=O)cc1`: the inhibition constant Ki in test [3] and in test [4] was > 1000 nM in each case.
In the case of `NS(=O)(=O)c1ccc(CN2C(=O)c3nccnc3C2=O)cc1`, the Ki in test [2] is 5.9 nM.
In test [2], `NS(=O)(=O)c1ccc(N2C(=O)c3nccnc3C2=O)cc1` showed an inhibition constant Ki of 2.9 nM.
Regarding `O=C(O)c1ccc(N2C(=O)c3nccnc3C2=O)cc1`, the values for the Ki in test [2], in test [3] and in test [4] were 22.1 nM, > 1000 nM and > 1000 nM, respectively.
Take `NS(=O)(=O)c1ccc(CN2C(=O)c3cccc4cccc(c34)C2=O)cc1`: the inhibition constant (Ki) in test [2] worked out at 4.6 nM.
Turning to `NS(=O)(=O)c1ccc(N2C(=O)c3cccc4cccc(c34)C2=O)cc1`, the Ki in test [2] stood at 4.9 nM.
`NS(=O)(=O)c1ccc(CN2C(=O)CCC2=O)cc1`: affinity in test [2] was put at a Ki of 29.3 nM.
For `NS(=O)(=O)c1ccc(N2C(=O)CCC2=O)cc1`, the Ki in test [2] worked out at 10.8 nM.
As for `O=C(O)c1ccc(N2C(=O)CCC2=O)cc1`, the values for the Ki in test [2] and in test [3] were 506 nM and > 1000 nM, respectively.
The compound `NS(=O)(=O)c1ccc(CN2C(=O)[C@H]3CC=CC[C@H]3C2=O)cc1` yielded a Ki in test [2] of 2.6 nM.
In the case of `NS(=O)(=O)c1ccc(N2C(=O)[C@H]3CC=CC[C@H]3C2=O)cc1`, the Ki was 0.57 nM in test [1], 4.4 nM in test [2], 4.8 nM in test [3] and 31.2 nM in test [4].
As to `NS(=O)(=O)c1ccc(CN2C(=O)c3ccccc3C2=O)cc1`, the affinity in test [2], expressed as Ki, was 4.1 nM.
Regarding `Cc1ccc2c(c1)C(=O)N(Cc1ccc(S(N)(=O)=O)cc1)C2=O`, the Ki in test [1] was 0.85 nM; in test [2], 5.9 nM; in test [3] it was 26.2 nM; in test [4], 21.8 nM.
On to `Cc1ccc2c(c1)C(=O)N(c1ccc(S(N)(=O)=O)cc1)C2=O`, for which, in test [2], the inhibition constant Ki amounted to 3.3 nM.
For `Cc1ccc2c(c1)C(=O)N(c1ccc(C(=O)O)cc1)C2=O`, the Ki was 350 nM in test [2] and > 1000 nM in test [3].
Compound `CC(C)(C)c1ccc2c(c1)C(=O)N(c1ccc(S(N)(=O)=O)cc1)C2=O` registered a Ki in test [2] of 2.4 nM.
Take `CC(C)(C)c1ccc2c(c1)C(=O)N(c1ccc(C(=O)O)cc1)C2=O`: the results for the Ki in test [2] and in test [3] were 428 nM and > 1000 nM, respectively.
As for `O=C(O)c1ccc(N2C(=O)c3cc(Cl)c(Cl)cc3C2=O)cc1`, the inhibitory constant (Ki) in test [2] is 41.6 nM; in test [3], > 1000 nM.
On to `NS(=O)(=O)c1ccc(CN2C(=O)c3c(Cl)c(Cl)c(Cl)c(Cl)c3C2=O)cc1`, for which, in test [2], the Ki stood at 3.1 nM.
With `O=C(O)c1ccc(N2C(=O)c3ccccc3C2=O)cc1`, the Ki in test [1] was determined as 18.7 nM; in test [2], 4.9 nM; in test [3] it was 166 nM; in test [4] it was 30.2 nM.
On to `NS(=O)(=O)c1ccc(N2C(=O)c3ccccc3C2=O)cc1`, for which the affinity in test [2], expressed as Ki, was 3.8 nM.
